Reference: patent US20210346366A1, “CH24H INHIBITORS FOR PAIN USE” (Takeda Pharmaceutical Company Limited, priority 2018, published 2021)

How the values were obtained:
[1] = biological target: NMDA receptors; details: read-out: EC50 as positive allosteric modulator of NMDA receptors; cited from earlier work
[2] = system: rat cortical spreading depression (CSD) model; experiment: rat cortical spreading depression (CSD) model, KCl-induced; assay type: in vivo; details: female Wistar rats, 10 mg/kg orally once daily for 6 days
Procedure: The following Example provides data from a rat cortical spreading depression (CSD) model, which recapitulates symptoms seen in migraine patients with aura. (2R)-1-((1-(4-(4-Methyl-1H-pyrazol-1-yl)pyridin-3-yl)piperidin-4-yl)carbonyl)pyrrolidine-2-carbonitrile was tested in the CSD model for its potential effects on hyperperfusion events and cortical direct current (DC)-potentials. Adult female Wistar rats from Charles River Germany were used for the experiment. Animals were housed at a standard temperature (22±1° C.) and in a light-controlled environment (lights on from 7 am to 8 pm) with ad libitum access to food and water. Rats were orally treated with vehicle (0.5% methylcellulose in water) or (2R)-1-((1-(4-(4-methyl-1H-pyrazol-1-yl)pyridin-3-yl)piperidin-4-yl)carbonyl)pyrrolidine-2-carbonitrile at the dose of 10 mg/kg once daily for 6 days (n=8). One hour after the last dosing, rats were anesthetized with 5% isoflurane (in 70% N2O and 30% O2; flow 300 ml/min), and placed in a stereotactic frame.
During the operation and CSD the concentration of anesthetic was reduced to 1-1.5%. The rectal temperature was maintained at 37.0±1.0° C. with a homeothermic blanket system. The skin was opened by a medial incision and retracted laterally. Three burr holes were drilled under saline cooling over the right hemisphere at the following coordinates (mm from bregma): (1) posterior 4.5, lateral, 2.0 (occipital cortex): KCl application site; (2) posterior 0.5, lateral 2.0 (parietal cortex) (3) anterior 2, lateral 2 (frontal cortex). A laser-Doppler flow probe (Oxyflow, Oxford Optronics, UK) to monitor cerebral blood flow (CBF) was placed in the parietal cortex burr holes on the intact dura. An invasive Ag/AgCl electrode for measuring DC potential shifts was placed in the frontal cortex burr holes on the intact dura. For the DC-potential measurement, a reference electrode was fixed in the neck. […] The number of KCl-induced CSDs was checked over the period of 2 hours and the number of CBF changes was also measured. […]

[3] = system: mouse model of chronic post-ischemic pain; experiment: mouse model of chronic post-ischemic pain (CRPS model), von Frey paw withdraw threshold; assay type: in vivo; details: 30 mg/kg orally once daily for 7 days
Procedure: The following Example provides data from a mouse model of chronic post-ischemic pain, which recapitulates symptoms seen in CRPS patients with peripheral tissue injury and subsequent progression of allodynia. (4-Benzyl-4-hydroxypiperidin-1-yl) (2,4′-bipyridin-3-yl)methanone was tested in the CRPS model for its potential effects on pain. Following 3-hour ischemia and 0.5-hour reperfusion given at a hind limb, mice (C57) were orally treated with (4-benzyl-4-hydroxypiperidin-1-yl) (2,4′-bipyridin-3-yl)methanone at the dose of 30 mg/kg once daily for 7 days (n=8). Paw withdraw threshold was evaluated with von Frey filaments as a behavioral index of mechanical allodynia at 0 h for the base line, 6 h, Days 1, 2, 4 and 7. The cumulative score of paw withdraw threshold over the study period was 17.7 in the sham-treated control group without ischemia/reperfusion injury. In the groups given ischemic injury, the cumulative score was 9.0 and 16.2 for the vehicle control and (4-benzyl-4-hydroxypiperidin-1-yl) (2,4′-bipyridin-3-yl)methanone group, respectively.

Compound: CC(C)[C@@H](O)CC[C@@H](C)[C@H]1CC[C@H]2[C@@H]3CC=C4C[C@@H](O)CC[C@]4(C)[C@H]3CC[C@]12C [24(S)-hydroxycholesterol]
- EC50 [1]: 1.2 µM

Compound: Cc1cnn(-c2ccncc2N2CCC(C(=O)N3CCC[C@@H]3C#N)CC2)c1 [(2R)-1-((1-(4-(4-methyl-1H-pyrazol-1-yl)pyridin-3-yl)piperidin-4-yl)carbonyl)pyrrolidine-2-carbonitrile]
- CSD events (effect of treatment) [2]: markedly reduced
- average number of KCl-induced CSDs ([2]; counted over 2 hours, vehicle 10.00): 4.75
- average number of CBF changes ([2]; over 2 hours, vehicle 22.75): 15.75

Compound: O=C(c1cccnc1-c1ccncc1)N1CCC(O)(Cc2ccccc2)CC1 [(4-benzyl-4-hydroxypiperidin-1-yl) (2,4′-bipyridin-3-yl)methanone]
- allodynia threshold (effect of treatment) ([3]; C57 mice with ischemic injury): markedly increased
- cumulative score of paw withdraw threshold over the study period ([3]; C57 mice, 3-hour ischemia and 0.5-hour reperfusion at a hind limb, von Frey filaments, vehicle 9.0, sham 17.7): 16.2
